# Measurements reported in patent US20050148523A1, “Method of treating HIV infection in atazanavir-resistant patients using a combination of atazanavir and another protease inhibitor” (priority 2003, published 2005).
# Key:
# [1] = system: clinical isolates containing an I50L substitution (and their baseline isolates); assay: PhenoSense phenotypic susceptibility of clinical isolates from ATV-treated patients who developed I50L; format: cell-based, HIV-1; conditions: for Subceptibility, Fold Change in EC50 relative to reference strain: Subject 169, Week 114; for median increase in susceptibility from baseline: on emergence of I50L, n=4 to 15; for percentage of I50L isolates with susceptibility (FC) 0.4-fold or lower: relative to the reference strain
# Excerpt: Study Population. Viral samples (baseline and on-treatment, where available) were obtained from patients who experienced virologic failure while enrolled in studies AI424-007/041 [12] (ATV+d4T and ddI), AI424-008/044 [13, 14] (ATV+d4T and 3TC) and AI424-034 [9] (ATV or EFV in combination with ZDV and 3TC). […] In general, virologic failure specimens were selected for further resistance evaluation only if they contained >1,000 copies/mL HIV-1 RNA and there was no indication that the specimen came from a patient at a time of transient non-adherence to study drug(s). […] For non-responders, samples from week 16 (or 24) were tested. Drug adherence was determined from pill counts of returned study medications at each scheduled visit.
# (§1) Drug Susceptibility Assays. Clinical isolates were subjected to phenotypic (PhenoSense™) and genotypic (GeneSeq™) analysis by Virologic, Inc. as described elsewhere.
# [2] = system: recombinant HIV-1 viruses (NL4-3, RF, LAI) in MT-2 cells; assay: MT-2 cell susceptibility assay of recombinant viruses; format: cell-based; conditions: all three viral strains, I50L or I50L/A71V introduced by site-directed mutagenesis
# Experimental: Cells and Viruses. MT-2 cells, HIV-1 RF, HIV1-LAI, and the HIV-1 NL4-3 proviral clones were obtained through the AIDS Research and Reference Reagent Program, National Institutes of Health. MT-2 cells were cultured in RPMI 1640 medium supplemented with 10% fetal bovine serum, 2 mM L-glutamine, and 10 mM Hepes buffer. HIV-1 viruses were generated by transient transfection of the proviral DNA into Human Embryonic Kidney 293 cells using Lipofectamine reagents (Gibco BRL). The viruses were harvested 72 hr post-transfection, amplified in MT-2 cells, and titered in the same cells using a virus yield assay.
# Recombinant HIV-1 Variants and Chimeric NL4-3 Proviral Clones. HIV-1 strains with defined substitutions in the protease gene were generated by QuikChange® site-directed mutagenesis as recommended by the manufacturer (Stratagene). Recombinant NL4-3 and LAI proviral clones containing the wild-type and mutant protease genes from RF and clinical isolates were constructed by replacing the SseI/ApaI fragment of pNL4-3 with the appropriate SseI/ApaI protease fragments.
# Recombinant viruses (generated separately from those made for PhenoSense assays) were tested in an MT-2 cell susceptibility assay at Bristol Myers Squibb. MT-2 cells were infected with recombinant viruses at a multiplicity of infection (MOI) of 0.005 50% tissue culture infective doses (TCID50)/cell followed by incubation in the presence or absence of serially diluted protease inhibitors for 4 to 7 days. Virus yields were quantified using a RT assay as previously described. The results from at least four independent experiments were used to calculate the EC50.
# [3] = system: clinical isolates from patients on NFV regimens; conditions: isolates containing D30N as the only primary PI mutation; cited from earlier work
# [4] = system: HIV-1 variants containing I50V; conditions: in vitro; cited from earlier work
# [5] = system: clinical isolates containing a D30N substitution; assay: PhenoSense phenotypic susceptibility of clinical isolates containing D30N; format: cell-based, HIV-1; conditions: 75 D30N containing isolates, FIG. 3
# Experimental: as §1
# Comparative Studies of I50L and D30N Containing Viruses. […] Comparative studies were performed on the 18 phenotyped viruses containing an I50L and 75 clinical isolates containing a D30N substitution without evidence of cross-resistance (FC≧2.5) to other PIs.
# [6] = system: clinical isolates containing an I50V; assay: PhenoSense phenotypic susceptibility of clinical isolates containing I50V; format: cell-based, HIV-1
# Excerpt: as §1
# Because an I50V substitution is a signature mutation sometimes associated with APV resistance, the cross-resistance relationship between ATV and APV was further examined.
smiles,measurement,setting,value
"CC(C)c1nc(CN(C)C(=O)N[C@H](C(=O)N[C@@H](Cc2ccccc2)C[C@H](O)[C@H](Cc2ccccc2)NC(=O)OCc2cncs2)C(C)C)cs1 [RTV, ritonavir]","Susceptibility, Fold Change in EC50 relative to reference strain","[1]; Subject 076, Week 80",0.3 Fold Change
same,"Susceptibility, Fold Change in EC50 relative to reference strain","[1]; Subject 076, Week 92",0.3 Fold Change
same,"Susceptibility, Fold Change in EC50 relative to reference strain","[1]; Subject 100, Week 1.7",2.2 Fold Change
same,"Susceptibility, Fold Change in EC50 relative to reference strain","[1]; Subject 169, Week 0.1",1.5 Fold Change
same,"Susceptibility, Fold Change in EC50 relative to reference strain","[1]; Subject 169, Week 90",0.3 Fold Change
same,"Susceptibility, Fold Change in EC50 relative to reference strain","[1]; Subject 169, Week 102",0.3 Fold Change
same,"Subceptibility, Fold Change in EC50 relative to reference strain",[1],0.4 Fold Change
same,"Susceptibility, Fold Change in EC50 relative to reference strain","[1]; Subject 362, Week 0.1",1.1 Fold Change
same,"Susceptibility, Fold Change in EC50 relative to reference strain","[1]; Subject 362, Week 108",0.4 Fold Change
same,percentage of baseline isolates exhibiting a FC≦0.4,[1],10%
same,median increase in susceptibility from baseline,[1],4.1 fold
same,percentage of I50L isolates with susceptibility (FC) 0.4-fold or lower,[1],83%
same,median FC,[1],≤ 0.4
same,change in susceptibility,[2],enhanced susceptibility
same,susceptibility,[3],remained susceptible
same,effect of I50V on susceptibility,[4],reduced susceptibility
"CC(C)(C)NC(=O)[C@@H]1CN(Cc2cccnc2)CCN1C[C@@H](O)C[C@@H](Cc1ccccc1)C(=O)N[C@H]1c2ccccc2C[C@H]1O [IDV, indinavir]","Susceptibility, Fold Change in EC50 relative to reference strain","[1]; Subject 076, Week 80",0.4 Fold Change
same,"Susceptibility, Fold Change in EC50 relative to reference strain","[1]; Subject 076, Week 92",0.5 Fold Change
same,"Susceptibility, Fold Change in EC50 relative to reference strain","[1]; Subject 100, Week 1.7",1.6 Fold Change
same,"Susceptibility, Fold Change in EC50 relative to reference strain","[1]; Subject 169, Week 0.1",0.8 Fold Change
same,"Susceptibility, Fold Change in EC50 relative to reference strain","[1]; Subject 169, Week 90",0.5 Fold Change
same,"Susceptibility, Fold Change in EC50 relative to reference strain","[1]; Subject 169, Week 102",0.4 Fold Change
same,"Subceptibility, Fold Change in EC50 relative to reference strain",[1],0.4 Fold Change
same,"Susceptibility, Fold Change in EC50 relative to reference strain","[1]; Subject 362, Week 0.1",1.3 Fold Change
same,"Susceptibility, Fold Change in EC50 relative to reference strain","[1]; Subject 362, Week 108",0.7 Fold Change
same,percentage of baseline isolates exhibiting a FC≦0.4,[1],0%
same,median increase in susceptibility from baseline,[1],2.0 fold
same,percentage of I50L isolates with susceptibility (FC) 0.4-fold or lower,[1],58%
same,median FC,[1],≤ 0.4
same,median FC,[5],small median decreases in susceptibility
same,change in susceptibility,[2],enhanced susceptibility
same,susceptibility,[3],remained susceptible
same,effect of I50V on susceptibility,[4],increased susceptibility
"CC(C)CN(C[C@@H](O)[C@H](Cc1ccccc1)NC(=O)O[C@H]1CCOC1)S(=O)(=O)c1ccc(N)cc1 [APV, amprenavir]",cross-resistance,[1]; I50L containing clinical isolates,none of the I50L containing clinical isolates showed evidence of APV resistance
same,"Susceptibility, Fold Change in EC50 relative to reference strain",[1]; Isolate with I50L 1,0.3 Fold Change
same,"Susceptibility, Fold Change in EC50 relative to reference strain",[1]; Isolate with I50L 2,0.6 Fold Change
same,"Susceptibility, Fold Change in EC50 relative to reference strain",[1]; Isolate with I50L 3,0.5 Fold Change
same,"Susceptibility, Fold Change in EC50 relative to reference strain",[1]; Isolate with I50L 4,0.4 Fold Change
same,"Susceptibility, Fold Change in EC50 relative to reference strain",[1]; Isolate with I50L 5,0.6 Fold Change
same,"Susceptibility, Fold Change in EC50 relative to reference strain",[1]; Isolate with I50L 6,0.4 Fold Change
same,"Susceptibility, Fold Change in EC50 relative to reference strain",[1]; Isolate with I50L 7,0.6 Fold Change
same,"Susceptibility, Fold Change in EC50 relative to reference strain",[1]; Isolate with I50L 8,0.8 Fold Change
same,"Susceptibility, Fold Change in EC50 relative to reference strain",[1]; Isolate with I50L 9,0.6 Fold Change
same,"Susceptibility, Fold Change in EC50 relative to reference strain",[1]; Isolate with I50L 10,0.3 Fold Change
same,"Susceptibility, Fold Change in EC50 relative to reference strain",[1]; Isolate with I50L 11,0.4 Fold Change
same,"Susceptibility, Fold Change in EC50 relative to reference strain",[1]; Isolate with I50L 12,0.7 Fold Change
same,"Susceptibility, Fold Change in EC50 relative to reference strain",[1]; Isolate with I50L 13,0.7 Fold Change
same,"Susceptibility, Fold Change in EC50 relative to reference strain",[1]; Isolate with I50L 14,0.8 Fold Change
same,"Susceptibility, Fold Change in EC50 relative to reference strain",[1]; Isolate with I50L 15,0.9 Fold Change
same,"Susceptibility, Fold Change in EC50 relative to reference strain",[1]; Isolate with I50L 16,0.4 Fold Change
same,"Susceptibility, Fold Change in EC50 relative to reference strain","[1]; Subject 076, Week 80",0.6 Fold Change
same,"Susceptibility, Fold Change in EC50 relative to reference strain","[1]; Subject 076, Week 92",0.9 Fold Change
same,"Susceptibility, Fold Change in EC50 relative to reference strain","[1]; Subject 100, Week 1.7",1.5 Fold Change
same,"Susceptibility, Fold Change in EC50 relative to reference strain","[1]; Subject 169, Week 0.1",0.6 Fold Change
same,"Susceptibility, Fold Change in EC50 relative to reference strain","[1]; Subject 169, Week 90",0.7 Fold Change
same,"Susceptibility, Fold Change in EC50 relative to reference strain","[1]; Subject 169, Week 102",0.6 Fold Change
same,"Subceptibility, Fold Change in EC50 relative to reference strain",[1],1.2 Fold Change
same,"Susceptibility, Fold Change in EC50 relative to reference strain","[1]; Subject 362, Week 0.1",1.0 Fold Change
same,"Susceptibility, Fold Change in EC50 relative to reference strain","[1]; Subject 362, Week 108",1.1 Fold Change
same,percentage of baseline isolates exhibiting a FC≦0.4,[1],21%
same,median increase in susceptibility from baseline,[1],1.5 fold
same,percentage of I50L isolates with susceptibility (FC) 0.4-fold or lower,[1],39%
same,"Susceptibility, Fold Change in EC50 relative to reference strain",[6]; Isolate with I50V 1,3.5 Fold Change
same,"Susceptibility, Fold Change in EC50 relative to reference strain",[6]; Isolate with I50V 2,4.2 Fold Change
same,"Susceptibility, Fold Change in EC50 relative to reference strain",[6]; Isolate with I50V 3,8.0 Fold Change
same,"Susceptibility, Fold Change in EC50 relative to reference strain",[6]; Isolate with I50V 4,9.4 Fold Change
same,"Susceptibility, Fold Change in EC50 relative to reference strain",[6]; Isolate with I50V 5,11 Fold Change
same,"Susceptibility, Fold Change in EC50 relative to reference strain",[6]; Isolate with I50V 6,11 Fold Change
same,"Susceptibility, Fold Change in EC50 relative to reference strain",[6]; Isolate with I50V 7,12 Fold Change
same,"Susceptibility, Fold Change in EC50 relative to reference strain",[6]; Isolate with I50V 8,14 Fold Change
same,median FC,[5],0.6
same,change in susceptibility,[2],enhanced susceptibility
same,susceptibility,[3],remained susceptible
"CC(C)(C)NC(=O)[C@@H]1C[C@@H]2CCCC[C@@H]2CN1C[C@@H](O)[C@H](Cc1ccccc1)NC(=O)[C@H](CC(N)=O)NC(=O)c1ccc2ccccc2n1 [SQV, saquinavir]","Susceptibility, Fold Change in EC50 relative to reference strain","[1]; Subject 076, Week 80",0.3 Fold Change
same,"Susceptibility, Fold Change in EC50 relative to reference strain","[1]; Subject 076, Week 92",0.5 Fold Change
same,"Susceptibility, Fold Change in EC50 relative to reference strain","[1]; Subject 100, Week 1.7",1.3 Fold Change
same,"Susceptibility, Fold Change in EC50 relative to reference strain","[1]; Subject 169, Week 0.1",0.8 Fold Change
same,"Susceptibility, Fold Change in EC50 relative to reference strain","[1]; Subject 169, Week 90",0.5 Fold Change
same,"Susceptibility, Fold Change in EC50 relative to reference strain","[1]; Subject 169, Week 102",0.4 Fold Change
same,"Subceptibility, Fold Change in EC50 relative to reference strain",[1],0.5 Fold Change
same,"Susceptibility, Fold Change in EC50 relative to reference strain","[1]; Subject 362, Week 0.1",1.0 Fold Change
same,"Susceptibility, Fold Change in EC50 relative to reference strain","[1]; Subject 362, Week 108",0.5 Fold Change
same,percentage of baseline isolates exhibiting a FC≦0.4,[1],10%
same,median increase in susceptibility from baseline,[1],2.0 fold
same,percentage of I50L isolates with susceptibility (FC) 0.4-fold or lower,[1],72%
same,median FC,[1],≤ 0.4
same,change in susceptibility,[2],enhanced susceptibility
same,susceptibility,[3],remained susceptible
same,effect of I50V on susceptibility,[4],increased susceptibility
"Cc1cccc(C)c1OCC(=O)N[C@@H](Cc1ccccc1)[C@@H](O)C[C@H](Cc1ccccc1)NC(=O)[C@H](C(C)C)N1CCCNC1=O [LPV, lopinavir]","Susceptibility, Fold Change in EC50 relative to reference strain","[1]; Subject 076, Week 80",0.6 Fold Change
same,"Susceptibility, Fold Change in EC50 relative to reference strain","[1]; Subject 076, Week 92",0.5 Fold Change
same,percentage of baseline isolates exhibiting a FC≦0.4,[1],0%
same,median increase in susceptibility from baseline,[1],3.2 fold
same,percentage of I50L isolates with susceptibility (FC) 0.4-fold or lower,[1],100%
same,median FC,[1],≤ 0.4
same,change in susceptibility,[2],enhanced susceptibility
same,effect of I50V on susceptibility,[4],reduced susceptibility
